Laboratory results: ChEMBL document CHEMBL3885881, “DrugMatrix”

Species on record: Rattus norvegicus
Assay: DrugMatrix - Regimen: Daily Repeat
Type: toxicity, organism-based, Sprague-Dawley
Parameters: regimen Daily Repeat, gender Male, age 6-8 weeks
Settings: in vivo, po, route oral GAVAGE, […]; for SODIUM / TOTAL BILIRUBIN / TOTAL PROTEIN / URIC ACID / ALANINE AMINOTRANSFERASE / ALBUMIN / ALKALINE PHOSPHATASE / ASPARTATE AMINOTRANSFERASE / BLOOD UREA NITROGEN / CARBON DIOXIDE / CHLORIDE / CHOLESTEROL / CREATINE PHOSPHOKINASE / CREATININE / GLUCOSE / LACTATE DEHYDROGENASE / LIPASE / PHOSPHORUS / POTASSIUM: tissue Plasma; for ABSOLUTE BASOPHIL / ABSOLUTE EOSINOPHIL / ABSOLUTE LYMPHOCYTE / ABSOLUTE MONOCYTE / ABSOLUTE SEGMENTED NEUTROPHIL / BASOPHIL / EOSINOPHIL / ERYTHROCYTE COUNT / HEMATOCRIT / HEMOGLOBIN / LEUKOCYTE COUNT / LYMPHOCYTE / MEAN CORPUSCULAR HEMOGLOBIN / MEAN CORPUSCULAR HEMOGLOBIN CONCENTRATION / MEAN CORPUSCULAR VOLUME / MONOCYTE / NEUTROPHIL / NUCLEATED RED BLOOD CELLS / PLATELET COUNT: tissue Blood
[1] = 12 mg/kg, 72 h, dose level M1, time 3 day
[2] = 12 mg/kg, 120 h, dose level M1, time 5 day
[3] = 75 mg/kg, 72 h, dose level M2, time 3 day
[4] = 75 mg/kg, 120 h, dose level M2, time 5 day

C#C[C@]1(O)CC[C@H]2[C@@H]3CCC4=CC(=O)CC[C@@H]4[C@H]3CC[C@@]21C [NORETHINDRONE]
SODIUM [1]: 144.57 MEQ/L | TOTAL BILIRUBIN [1]: 0.1 mg/dL | TOTAL PROTEIN [1]: 6.07 G/DL | URIC ACID [1]: 1 mg/dL | ABSOLUTE BASOPHIL [2]: 0 CELLS/uL | ABSOLUTE EOSINOPHIL [2]: 35 CELLS/uL | ABSOLUTE LYMPHOCYTE [2]: 6197.67 CELLS/uL | ABSOLUTE MONOCYTE [2]: 151.67 CELLS/uL | ABSOLUTE SEGMENTED NEUTROPHIL [2]: 315.67 CELLS/uL | BASOPHIL [2]: 0% | EOSINOPHIL [2]: 0.67% | ERYTHROCYTE COUNT [2]: 6.19 x10E6/uL | HEMATOCRIT [2]: 37.27% | HEMOGLOBIN [2]: 14.27 G/DL | LEUKOCYTE COUNT [2]: 6.7 x10E3/uL | LYMPHOCYTE [2]: 92.67% | MEAN CORPUSCULAR HEMOGLOBIN [2]: 23.1 pg | MEAN CORPUSCULAR HEMOGLOBIN CONCENTRATION [2]: 38.3 G/DL | MEAN CORPUSCULAR VOLUME [2]: 60.33 fL | MONOCYTE [2]: 2% | NEUTROPHIL [2]: 4.67% | NUCLEATED RED BLOOD CELLS [2]: 0 /100WBC | PLATELET COUNT [2]: 1179.67 x10E3/uL | ALANINE AMINOTRANSFERASE [2]: 68.33 u/L | ALBUMIN [2]: 4.67 G/DL | ALKALINE PHOSPHATASE [2]: 474.33 u/L | ASPARTATE AMINOTRANSFERASE [2]: 95.67 u/L | BLOOD UREA NITROGEN [2]: 10 mg/dL | CARBON DIOXIDE [2]: 25.67 mmol/L | CHLORIDE [2]: 106.67 MEQ/L | CHOLESTEROL [2]: 26 mg/dL | CREATINE PHOSPHOKINASE [2]: 277.33 u/L | CREATININE [2]: 0.25 mg/dL | GLUCOSE [2]: 177.33 mg/dL | LACTATE DEHYDROGENASE [2]: 205 u/L | LIPASE [2]: 8 u/L | PHOSPHORUS [2]: 12.13 mg/dL | POTASSIUM [2]: 5.86 MEQ/L | SODIUM [2]: 149.4 MEQ/L | TOTAL BILIRUBIN [2]: 0.1 mg/dL | TOTAL PROTEIN [2]: 6.73 G/DL | URIC ACID [2]: 1.83 mg/dL | ABSOLUTE BASOPHIL [3]: 0 CELLS/uL | ABSOLUTE EOSINOPHIL [3]: 0 CELLS/uL | ABSOLUTE LYMPHOCYTE [3]: 4761.67 CELLS/uL | ABSOLUTE MONOCYTE [3]: 38.67 CELLS/uL | ABSOLUTE SEGMENTED NEUTROPHIL [3]: 433 CELLS/uL | BASOPHIL [3]: 0% | EOSINOPHIL [3]: 0% | ERYTHROCYTE COUNT [3]: 5.41 x10E6/uL | HEMATOCRIT [3]: 33.4% | HEMOGLOBIN [3]: 12.87 G/DL | LEUKOCYTE COUNT [3]: 5.23 x10E3/uL | LYMPHOCYTE [3]: 91% | MEAN CORPUSCULAR HEMOGLOBIN [3]: 23.77 pg | MEAN CORPUSCULAR HEMOGLOBIN CONCENTRATION [3]: 38.53 G/DL | MEAN CORPUSCULAR VOLUME [3]: 61.77 fL | MONOCYTE [3]: 0.67% | NEUTROPHIL [3]: 8.33% | NUCLEATED RED BLOOD CELLS [3]: 0 /100WBC | PLATELET COUNT [3]: 1166.67 x10E3/uL | ALANINE AMINOTRANSFERASE [3]: 57 u/L | ALBUMIN [3]: 4.57 G/DL | ALKALINE PHOSPHATASE [3]: 692 u/L | ASPARTATE AMINOTRANSFERASE [3]: 76.67 u/L | BLOOD UREA NITROGEN [3]: 7.67 mg/dL | CARBON DIOXIDE [3]: 30.67 mmol/L | CHLORIDE [3]: 104 MEQ/L | CHOLESTEROL [3]: 29 mg/dL | CREATINE PHOSPHOKINASE [3]: 225 u/L | CREATININE [3]: 0.14 mg/dL | GLUCOSE [3]: 135.67 mg/dL | LACTATE DEHYDROGENASE [3]: 89 u/L | LIPASE [3]: 8 u/L | PHOSPHORUS [3]: 10.6 mg/dL | POTASSIUM [3]: 5.59 MEQ/L | SODIUM [3]: 145.07 MEQ/L | TOTAL BILIRUBIN [3]: 0.17 mg/dL | TOTAL PROTEIN [3]: 6.37 G/DL | URIC ACID [3]: 0.63 mg/dL | ABSOLUTE BASOPHIL [4]: 0 CELLS/uL | ABSOLUTE EOSINOPHIL [4]: 0 CELLS/uL | ABSOLUTE LYMPHOCYTE [4]: 9250.67 CELLS/uL | ABSOLUTE MONOCYTE [4]: 86 CELLS/uL | ABSOLUTE SEGMENTED NEUTROPHIL [4]: 330 CELLS/uL | BASOPHIL [4]: 0% | EOSINOPHIL [4]: 0% | ERYTHROCYTE COUNT [4]: 6.52 x10E6/uL | HEMATOCRIT [4]: 38.67% | HEMOGLOBIN [4]: 14.53 G/DL | LEUKOCYTE COUNT [4]: 9.67 x10E3/uL | LYMPHOCYTE [4]: 95.33% | MEAN CORPUSCULAR HEMOGLOBIN [4]: 22.3 pg | MEAN CORPUSCULAR HEMOGLOBIN CONCENTRATION [4]: 37.6 G/DL | MEAN CORPUSCULAR VOLUME [4]: 59.27 fL | MONOCYTE [4]: 1% | NEUTROPHIL [4]: 3.67% | NUCLEATED RED BLOOD CELLS [4]: 0 /100WBC | PLATELET COUNT [4]: 928.67 x10E3/uL | ALANINE AMINOTRANSFERASE [4]: 49 u/L | ALBUMIN [4]: 5 G/DL | ALKALINE PHOSPHATASE [4]: 440.33 u/L | ASPARTATE AMINOTRANSFERASE [4]: 68.33 u/L | BLOOD UREA NITROGEN [4]: 7 mg/dL | CARBON DIOXIDE [4]: 27 mmol/L | CHLORIDE [4]: 104.33 MEQ/L | CHOLESTEROL [4]: 35 mg/dL | CREATINE PHOSPHOKINASE [4]: 233.67 u/L | CREATININE [4]: 0.18 mg/dL | GLUCOSE [4]: 155.67 mg/dL | LACTATE DEHYDROGENASE [4]: 123.33 u/L | LIPASE [4]: 7.33 u/L | PHOSPHORUS [4]: 11 mg/dL | POTASSIUM [4]: 5.7 MEQ/L | SODIUM [4]: 147.73 MEQ/L | TOTAL BILIRUBIN [4]: 0.13 mg/dL | TOTAL PROTEIN [4]: 7.03 G/DL | URIC ACID [4]: 1.5 mg/dL
